One assay has as its system MX-1 breast cancer cells. Nature of the assay: In vitro cell viability, MX-1. The note with it: Table 3B; 5 μM for 72 H; MIA-602 = 1. Format: cell-based, human. On the procedure:
(§1) The inhibitory effects of the various synthesized GHRH antagonists were tested in cell proliferation assays in various human cancer cell lines including stomach cancer (KATOIII, N87), colon cancer (HT-29), urothelial cancer (J82, RT4), pancreatic cancer (PANC-1, CFPAC-1), prostatic cancer (PC3), breast cancer (MX-1, HCC1806), ovarian cancer (SK-OV-3, OVCAR-3) and lung cancer (HCC827, H460).
(§2) Cell culture. Human cancer cell lines including pancreatic (PANC-1 and CFPAC-1), lung (HCC827 and H460), stomach (NCI-N87 and KATOIII), urothelial (J82, RT4), prostatic (PC3), breast (MX-1 and HCC 1806), colorectal (HT-29), and ovarian (SK-OV-3 and OVCAR-3) were obtained from the American Type Culture Collection (ATCC) and cultured at 37° C. in a humidified 95% air/5% CO2 atmosphere in the medium recommended by ATCC.
(§3) In vitro cell viability. Cell viability was analyzed as follows: cancer cells including pancreatic (PANC-1 and CFPAC-1), lung (HCC827 and H460), stomach (NCI-N87 and KATOIII), urothelial (J82, RT4), prostatic (PC3) and breast (MX-1 and HCC 1806), colorectal (HT-29) and ovarian (SK-OV-3 and OVCAR-3) were grown on 96 well plates to ˜60% confluence, the cells were starved for 24 h in culture medium containing 0.5% FBS. Cells were then treated with GHRH antagonists MIA602 AVR compounds at concentrations of 1, 2.5 or 5 μM, or vehicle (0.1% DMSO) in quintuplicates for 72 hours. The medium was replaced every 48 hours. Cell viability was measured using CellTiter 96 aqueous one solution kit (Promega). Inhibitory effects of tested AVR compounds in comparison to that of MIA602 are presented as inhibitory potency.
Inhibitory effects of selected AVR compounds in comparison to that of MIA602 are presented as inhibitory potency (e.g., percentage of inhibition). […] The cell lines tested including lung cancer HCC827 (FIG. 2A), pancreatic cancer CFPAC-1 (FIG. 2B), stomach cancer N87 (FIG. 2C), colon cancer HT-29 (FIG. 2D), breast cancers MX-1 and HCC1806 (FIGS. 2 E, F). Based on the results of cell proliferation assay after cancer cells were treated with antagonist at concentration of 5 μM for 72H, the relative inhibitory potency of AVR antagonists in comparison to MIA-602 is summarized in Table 3 A and B. Over 60 AVR compounds were tested in 12 cancer cell lines.
Based on the results of cell proliferation assay after cancer cells were treated with antagonist at concentration of 5 µM for 72H, * at concentration of 2 µM for 72 H.

The subject of assay [1] is OVCAR-3 ovarian cancer cells. Description: In vitro cell viability, OVCAR-3. The format is cell-based, human. The note with it: Table 3B; * at 2 μM for 72 H; MIA-602 = 1. The protocol: as §1, §2, §3
Inhibitory effects of selected AVR compounds in comparison to that of MIA602 are presented as inhibitory potency (e.g., percentage of inhibition). […] The cell lines tested including lung cancer HCC827 (FIG. 2A), pancreatic cancer CFPAC-1 (FIG. 2B), stomach cancer N87 (FIG. 2C), colon cancer HT-29 (FIG. 2D), breast cancers MX-1 and HCC1806 (FIGS. 2 E, F). […]

The subject of assay [2] is pancreatic cancer CFPAC-1 xenograft. Nature of the assay: Xenograft tumor growth in nude mice, CFPAC-1. The format is in vivo. The note with it: Table 4I, Pancreatic Ca CFPAC-1, 7 weeks; for % Inhibition: vs control. On the procedure: (§4) The peptides' activity was compared with GHRH antagonist MIA-602. All statistical analyzses were performed from comparing GHRA antagonists to non-treated tumor (control).
(§5) Peptides and chemicals. GHRH antagonists MIA-602 and AVR-GHRH antagonists (see Table 2 above) were synthesized by solid phase methods and purified by HPLC. The peptides were dissolved in DMSO and further diluted in 10% 1,2-propanediol. The final concentration of peptides was 50 µg/ml in 10% 1,2-propanediol containing 0.1% of DMSO.
(§6) Cell culture. Human cancer cell lines including pancreatic (PANC-1 and CFPAC-1), lung (HCC827 and H460), stomach (NCI-N87), prostate (PC3), brest (MX-1 and HCC-1806), colorectal (HT-29), and ovarian (SK-OV-3 and OVCAR-3) were obtained from the American Type Culture Collection (ATCC) and cultured at 37° C. in a humidified 95% air/5% CO2 atmosphere in the medium recommended by ATCC.
(§7) Xenograft models of human cancers in nude mice. Female athymic (NCr nu/nu) nude mice, 5- to 6-weeks-old, obtained from the Envigo labs (Tampa, Fla.), were housed in laminar airflow cabinets under pathogen-free conditions with a 12-h light/12-h dark schedule, and were fed autoclaved standard chow and water. To generate mice with xenografted tumors, tumor xenografts were initiated by subcutaneous (s.c.) injection of 107 human cancer cells into female nude mice. After about 4 weeks the resulting tumors were dissected and collected after removing necrosis tissues. The tumors were then cut into particles with size of 3 mm3 and transplanted s.c. by trocar needle into experimental animals. When tumors grew to the size of 50-60 mm3 (by volume), mice were randomized into groups and treated daily for 4-8 weeks by subcutaneous administration of 5 μg of GHRH antagonists MIA-602 or AVR-compounds (2-10 μg as indicated), or vehicle solutions (0.1% DMSO in 10% 1,2-propanediol) respectively. Tumor sizes were measured weekly.
(§8) Statistical analysis. One-way ANOVA followed by Bonferroni comparison were performed. Data are expressed as Mean±SEM. To determine statistical significance between animal groups, two-tailed Student's t-test was conducted. Differences were considered significant when p<0.05.
(§9) Results. […] FIG. 1A-N represents in vivo inhibition of tumor growth during the treatment with GHRH antagonist MIA-602 and selected AVR antagonists in nude mice xenografted with various human tumors including pancreatic cancer PANC-1 (FIG. 1A) and CFPAC-1 (FIG. 1I); lung cancer HCC827 (FIGS. 1B, C) and H460 (FIG. 1H); stomach cancer N87 (FIGS. 1D-F); colon cancer HT-29 (FIG. 1G); breast cancer MX-1 and HCC-1806 (FIGS. 1J, K); ovarian cancer SK-OV-3 and OVACAR-3 (FIGS. 1 L, M) and prostate cancer PC3 (FIG. 1N). See also Table 5.

Assay [3] has as its system lung cancer H460 xenograft. Description: Xenograft tumor growth in nude mice, H460. The conditions noted are these: Table 4H, Lung Ca H460, 4 weeks, 5 μg/day s.c. The format is in vivo. On the procedure:
as §4, §5, §6, §7, §8, §9

Assay [4] deals with breast cancer MX-1 xenograft. Description: Xenograft tumor growth in nude mice, MX-1. Format: in vivo. The conditions noted are these: Table 4J, Breast Ca MX-1, 4 weeks, 5 μg/day s.c.; for % Inhibition: vs control. The protocol:
as §4, §5, §6, §7, §8, §9

Assay [5] deals with ovarian cancer SK-OV-3 xenograft. Nature of the assay: Xenograft tumor growth in nude mice, SK-OV-3. Format: in vivo. The conditions noted are these: Table 4L, Ovarian Ca SK-OV-3, 7 weeks; for % Inhibition: vs control. The protocol:
as §4, §5, §6, §7, §8, §9

Assay [6] deals with prostate cancer PC3 xenograft. Nature of the assay: Xenograft tumor growth in nude mice, PC3. The format is in vivo. The conditions noted are these: Table 4N, Prostate Ca PC3, 8 weeks, 5 μg/day s.c.; for % Inhibition: vs control. On the procedure:
as §4, §5, §6, §7, §8, §9

Non-standard residues stand in square brackets, D forms with d. Residues, ends and D or L forms follow the SMILES beside them. *: point of attachment. Phenylacetyl(2,3,4,5,6-F5) = O=C(Cc1c(F)c(F)c(F)c(F)c1F)*; Phe(F5) = N[C@@H](Cc1c(F)c(F)c(F)c(F)c1F)C(=O)O; Phe(4-Cl) = N[C@@H](Cc1ccc(Cl)cc1)C(=O)O; hArg = N=C(N)NCCCC[C@H](N)C(=O)O; 12Ado = NCCCCCCCCCCCC(=O)O; Nle = CCCC[C@H](N)C(=O)O; Abu = CC[C@H](N)C(=O)O

Usually % Inhibition stands for the drop in the measured response relative to a control, in per cent. High values mean strong suppression, low ones little suppression. Take `CCCC[C@H](NC(=O)[C@@H](NC(=O)[C@H](CC(=O)O)NC(=O)[C@H](CCC(N)=O)NC(=O)[C@H](CC(C)C)NC(=O)[C@H](CC(C)C)NC(=O)[C@H](CCCCN)NC(=O)[C@H](CCCNC(=N)N)NC(=O)[C@H](C)NC(=O)[C@H](CO)NC(=O)[C@H](CC(C)C)NC(=O)[C@H](CCC(N)=O)NC(=O)[C@H](CC)NC(=O)[C@H](CC(C)C)NC(=O)[C@@H](NC(=O)[C@H](CCCCN)NC(=O)[C@H](CCCNC(=N)N)NC(=O)[C@H](Cc1ccc(OC)cc1)NC(=O)[C@H](CCCCNC(=N)N)NC(=O)[C@H](C)NC(=O)[C@@H](NC(=O)[C@H](Cc1c(F)c(F)c(F)c(F)c1F)NC(=O)[C@@H](NC(=O)[C@H](C)NC(=O)[C@H](CC(=O)O)NC(=O)[C@@H](CCCNC(=N)N)NC(=O)[C@H](Cc1ccc(O)cc1)NC(=O)CCCCCCCCCCCNC(=O)Cc1c(F)c(F)c(F)c(F)c1F)[C@@H](C)CC)[C@@H](C)O)C(C)C)[C@@H](C)CC)C(=O)N[C@H](CCCNC(=N)N)C(=O)N[C@@H](CCCCNC(=N)N)C(=O)NCCCCCCCCCCCC(N)=O` [AVR-352, 5FPhAC-Ada-Tyr-DArg-Asp-Ala-Ile-5FPhe-Thr-Ala-Har-Tyr(Me)-Arg-Lys-Val-Leu-Abu-Gln-Leu-Ser-Ala-Arg-Lys-Leu-Leu-Gln-Asp-Ile-Nle-DArg-Har-Ada-NH2] ({Phenylacetyl(2,3,4,5,6-F5)-12Ado}-Y[dR]DAI[Phe(F5)]TA[hArg]Y(Me)RKVL[Abu]QLSARKLLQDI[Nle][dR][hArg][12Ado]-NH2): the “In vitro relative inhibitory potency in comparison to MIA-602, MX-1” value in the assay on MX-1 breast cancer cells came out at 2.793. Further, in assay [1], the “In vitro relative inhibitory potency in comparison to MIA-602, OVCAR-3” value is recorded as 1.68*. The “Tumor Growth %” value in assay [2] (2.5 μg/day s.c.) stood at 1616.9%; in assay [2] (5 μg/day s.c.) it was 1448.4%; in assay [3], 1738.3%; in assay [4] it was 673.2%. Moreover, the “% Inhibition” value in assay [2] (2.5 μg/day s.c.) turned out to be 18.0%; in assay [2] (5 μg/day s.c.), 26.5%; in assay [3] (vs control) it was 48.6%; in assay [4] it was 39.5%; in assay [5] (2.5 μg/day s.c.) it was 45.0%; in assay [5] (5 μg/day s.c.), 67.7%. Besides, the “% Inhibition” value in assay [6] worked out at 50.0%. The “Tumor Size (mm3)” value in assay [5] (2.5 μg/day s.c.) stood at 718.4 mm3; in assay [5] (5 μg/day s.c.), 422.3 mm3; in assay [6], 413.3 mm3.
On to `CCCC[C@H](NC(=O)[C@@H](NC(=O)[C@H](CC(=O)O)NC(=O)[C@H](CCC(N)=O)NC(=O)[C@H](CC(C)C)NC(=O)[C@H](CC(C)C)NC(=O)[C@H](CCCCN)NC(=O)[C@H](CCCNC(=N)N)NC(=O)[C@H](C)NC(=O)[C@H](CO)NC(=O)[C@H](CC(C)C)NC(=O)[C@H](CCC(N)=O)NC(=O)[C@H](CC)NC(=O)[C@H](CC(C)C)NC(=O)[C@@H](NC(=O)[C@H](CCCCN)NC(=O)[C@H](CCCNC(=N)N)NC(=O)[C@H](Cc1c(F)c(F)c(F)c(F)c1F)NC(=O)[C@H](CCCCNC(=N)N)NC(=O)[C@H](C)NC(=O)[C@@H](NC(=O)[C@H](Cc1ccc(Cl)cc1)NC(=O)[C@@H](NC(=O)[C@H](C)NC(=O)[C@H](CC(=O)O)NC(=O)[C@@H](CCCNC(=N)N)NC(=O)[C@H](Cc1ccc(O)cc1)NC(=O)CCCCCCCCCCCNC(=O)Cc1c(F)c(F)c(F)c(F)c1F)[C@@H](C)CC)[C@@H](C)O)C(C)C)[C@@H](C)CC)C(=O)N[C@H](CCCNC(=N)N)C(=O)N[C@@H](CCCCNC(=N)N)C(=O)NCCCCCCCCCCCC(=O)NC` [AVR-354] ({Phenylacetyl(2,3,4,5,6-F5)-12Ado}-Y[dR]DAI[Phe(4-Cl)]TA[hArg][Phe(F5)]RKVL[Abu]QLSARKLLQDI[Nle][dR][hArg][12Ado]-NHMe), for which the “In vitro relative inhibitory potency in comparison to MIA-602, MX-1” value in the assay on MX-1 breast cancer cells was 1.594. In assay [4], the “Tumor Growth %” value turned out to be 488.3% and the “% Inhibition” value is 56.2%. Further, in assay [6], the “Tumor Size (mm3)” value was 343.6 mm3 and the “% Inhibition” value is reported as 58.4%.
